What follows are compounds tested against MLL1-WDR5 protein-protein interaction (Homo sapiens (Human), UniProt P61964) (assay: WDR5 TR-FRET assay (MLL1-WDR5 PPI inhibition)). Details: 5 nM WDR5 protein, 10 nM peptide, read-out: IC50 (nM), MLL1-WDR5 PPI inhibitory activity.
Format: binding
Experimental: WDR5 TR-FRET Assay Procedure: Stock compounds were transferred to the assay plate by Echo Liquid Handler. […] Stock compounds were incubated with WDR5 protein for 30 min at room temperature. Plates were covered, protected from light and incubated for 60 min at room temperature, after adding the peptide and Tb-Ab. EnVision Multimode Plate Reader (PerkinElmer) was used for the TR-FRET assay with excitation wavelength at 340 nm and emission wavelength at 495 and 520 nm. The ratio of the 520/495 wavelengths were used to assess the degree of the FRET signal. IC50 was calculated by fitting the inhibition data using XLfit software to sigmoidal dose-response model.

Compound	IC50
C[C@@H]1CN(c2ccc(-n3cc(C(=O)NCCCN4CCOCC4)nn3)cc2NC(=O)c2c[nH]c(=O)cc2C(F)(F)F)C[C@H](C)N1C [Example 2, N-(5-(4-((3-morpholinopropyl)carbamoyl)-1H-1,2,3-triazol-1-yl)-2-((3S,5R)-3,4,5-trimethylpiperazin-1-yl)phenyl)-6-oxo-4-(trifluoromethyl)-1,6-dihydropyridine-3-carboxamide]	16.7 nM
CN1CCN(c2ccc(-n3cc(C(=O)NCCCN4CCOCC4)nn3)cc2NC(=O)c2cnc(Cl)cc2C(F)(F)F)CC1 [Example 3, 6-chloro-N-(2-(4-methylpiperazin-1-yl)-5-(4-((3-morpholinopropyl)carbamoyl)-1H-1,2,3-triazol-1-yl)phenyl)-4-(trifluoromethyl)nicotinamide]	> 10000 nM
CN1CCN(c2ccc(-n3cc(C(=O)NCCCN4CCOCC4)nn3)cc2NC(=O)c2c[nH]c(=O)cc2C(F)(F)F)CC1 [Example 4]	51.3 nM
C[C@@H]1CN(c2cc(F)c(-n3cc(C(=O)NCCCN4CCOCC4)nn3)cc2NC(=O)c2cnc(Cl)cc2C(F)(F)F)C[C@H](C)N1C [Example 5, 6-chloro-N-(4-fluoro-5-(4-((3-morpholinopropyl)carbamoyl)-1H-1,2,3-triazol-1-yl)-2-((3S,5R)-3,4,5-trimethylpiperazin-1-yl)phenyl)-4-(trifluoromethyl)nicotinamide]	7270 nM
C[C@@H]1CN(c2cc(F)c(-n3cc(C(=O)NCCCN4CCOCC4)nn3)cc2NC(=O)c2c[nH]c(=O)cc2C(F)(F)F)C[C@H](C)N1C [Example 6, N-(4-fluoro-5-(4-((3-morpholinopropyl)carbamoyl)-1H-1,2,3-triazol-1-yl)-2-((3S,5R)-3,4,5-trimethylpiperazin-1-yl)phenyl)-6-oxo-4-(trifluoromethyl)-1,6-dihydropyridine-3-carboxamide]	7.23 nM
CN1CCN(c2cc(F)c(-n3cc(C(=O)NCCCN4CCOCC4)nn3)cc2NC(=O)c2cnc(Cl)cc2C(F)(F)F)CC1 [Example 7, 6-chloro-N-(4-fluoro-2-(4-methylpiperazin-1-yl)-5-(4-((3-morpholinopropyl)carbamoyl)-1H-1,2,3-triazol-1-yl)phenyl)-4-(trifluoromethyl)nicotinamide]	> 10000 nM
CN1CCN(c2cc(F)c(-n3cc(C(=O)NCCCN4CCOCC4)nn3)cc2NC(=O)c2c[nH]c(=O)cc2C(F)(F)F)CC1 [Example 8, N-(4-fluoro-2-(4-methylpiperazin-1-yl)-5-(4-((3-morpholinopropyl)carbamoyl)-1H-1,2,3-triazol-1-yl)phenyl)-6-oxo-4-(trifluoromethyl)-1,6-dihydropyridine-3-carboxamide]	21.2 nM
C[C@H]1CN(c2ccc(-n3cc(C(=O)NCCCN4CCOCC4)nn3)cc2NC(=O)c2cnc(Cl)cc2C(F)(F)F)CCN1C [Example 9, (S)-6-chloro-N-(2-(3,4-dimethylpiperazin-1-yl)-5-(4-((3-morpholinopropyl)carbamoyl)-1H-1,2,3-triazol-1-yl)phenyl)-4-(trifluoromethyl)nicotinamide]	> 10000 nM
C[C@H]1CN(c2ccc(-n3cc(C(=O)NCCCN4CCOCC4)nn3)cc2NC(=O)c2c[nH]c(=O)cc2C(F)(F)F)CCN1C [Example 10, (S)-N-(2-(3,4-dimethylpiperazin-1-yl)-5-(4-((3-morpholinopropyl)carbamoyl)-1H-1,2,3-triazol-1-yl)phenyl)-6-oxo-4-(trifluoromethyl)-1,6-dihydropyridine-3-carboxamide]	9.12 nM
CN1CCN(c2ccc(-n3cc(C(=O)NCCCN4CCOCC4)nn3)cc2NC(=O)c2cnc(F)cc2C(F)(F)F)CC1 [Example 11, 6-fluoro-N-(2-(4-methylpiperazin-1-yl)-5-(4-((3-morpholinopropyl)carbamoyl)-1H-1,2,3-triazol-1-yl)phenyl)-4-(trifluoromethyl)nicotinamide]	4230 nM
Cc1cc(C(F)(F)F)c(C(=O)Nc2cc(-n3cc(C(=O)NCCCN4CCOCC4)nn3)ccc2N2CCN(C)CC2)cn1 [Example 12, 6-methyl-N-(2-(4-methylpiperazin-1-yl)-5-(4-((3-morpholinopropyl)carbamoyl)-1H-1,2,3-triazol-1-yl)phenyl)-4-(trifluoromethyl)nicotinamide]	> 10000 nM
CN1CCN(c2ccc(-n3cc(C(=O)NCCCN4CCOCC4)nn3)cc2NC(=O)c2cnc(C#N)cc2C(F)(F)F)CC1 [Example 13, 6-cyano-N-[2-(4-methylpiperazin-1-yl)-5-[4-(3-morpholinopropylcarbamoyl)triazol-1-yl]phenyl]-4-(trifluoromethyl)pyridine-3-carboxamide]	> 10000 nM
CSc1cc(C(F)(F)F)c(C(=O)Nc2cc(-n3cc(C(=O)NCCCN4CCOCC4)nn3)ccc2N2CCN(C)CC2)cn1 [Example 14, N-[2-(4-methylpiperazin-1-yl)-5-[4-(3-morpholinopropylcarbamoyl)triazol-1-yl]phenyl]-6-methylsulfanyl-4-(trifluoromethyl)pyridine-3-carboxamide]	> 10000 nM
CN1CCN(c2ccc(-n3cc(C(=O)NCCCN4CCOCC4)nn3)cc2NC(=O)c2cnc(S(C)(=O)=O)cc2C(F)(F)F)CC1 [Example 15, N-[2-(4-methylpiperazin-1-yl)-5-[4-(3-morpholinopropylcarbamoyl)triazol-1-yl]phenyl]-6-methylsulfonyl-4-(trifluoromethyl)pyridine-3-carboxamide]	> 10000 nM
COc1cc(C(F)(F)F)c(C(=O)Nc2cc(-n3cc(C(=O)NCCCN4CCOCC4)nn3)ccc2N2CCN(C)CC2)cn1 [Example 16, 6-methoxy-N-(2-(4-methylpiperazin-1-yl)-5-(4-((3-morpholinopropyl)carbamoyl)-1H-1,2,3-triazol-1-yl)phenyl)-4-(trifluoromethyl)nicotinamide]	> 10000 nM
CCOc1cc(C(F)(F)F)c(C(=O)Nc2cc(-n3cc(C(=O)NCCCN4CCOCC4)nn3)ccc2N2CCN(C)CC2)cn1 [Example 17, 6-ethoxy-N-(2-(4-methylpiperazin-1-yl)-5-(4-((3-morpholinopropyl)carbamoyl)-1H-1,2,3-triazol-1-yl)phenyl)-4-(trifluoromethyl)nicotinamide]	> 10000 nM
CN1CCN(c2ccc(-n3cc(C(=O)NCCCN4CCOCC4)nn3)cc2NC(=O)c2cnc(N)cc2C(F)(F)F)CC1 [Example 18, 6-amino-N-(2-(4-methylpiperazin-1-yl)-5-(4-((3-morpholinopropyl)carbamoyl)-1H-1,2,3-triazol-1-yl)phenyl)-4-(trifluoromethyl)nicotinamide]	> 10000 nM
CN1CCN(c2ccc(-n3cc(C(=O)NCCCN4CCOCC4)nn3)cc2NC(=O)c2cnc(Cl)cc2Cl)CC1 [Example 19, 4,6-dichloro-N-[2-(4-methylpiperazin-1-yl)-5-[4-(3-morpholinopropylcarbamoyl)triazol-1-yl]phenyl]pyridine-3-carboxamide]	> 10000 nM
CN1CCN(c2ccc(-n3cc(C(=O)NCCCN4CCOCC4)nn3)cc2NC(=O)c2cnc(C(F)(F)F)cc2Cl)CC1 [Example 20, 4-chloro-N-(2-(4-methylpiperazin-1-yl)-5-(4-((3-morpholinopropyl)carbamoyl)-1H-1,2,3-triazol-1-yl)phenyl)-6-(trifluoromethyl)nicotinamide]	> 10000 nM
Cc1c(Cl)ncc(C(=O)Nc2cc(-n3cc(C(=O)NCCCN4CCOCC4)nn3)ccc2N2CCN(C)CC2)c1Cl [Example 21, 4,6-dichloro-5-methyl-N-(2-(4-methylpiperazin-1-yl)-5-(4-((3-morpholinopropyl)carbamoyl)-1H-1,2,3-triazol-1-yl)phenyl)nicotinamide]	6570 nM
CN1CCN(c2ccc(-n3cc(C(=O)NCCCN4CCOCC4)nn3)cc2NC(=O)c2cnc(Cl)cc2N)CC1 [Example 22, 4-amino-6-chloro-N-(2-(4-methylpiperazin-1-yl)-5-(4-((3-morpholinopropyl)carbamoyl)-1H-1,2,3-triazol-1-yl)phenyl)nicotinamide]	> 10000 nM
CN1CCN(c2ccc(-n3cc(C(=O)NCCCN4CCOCC4)nn3)cc2NC(=O)c2cnc(Cl)cc2N(C)C)CC1 [Example 23, 6-chloro-4-(dimethylamino)-N-[2-(4-methylpiperazin-1-yl)-5-[4-(3-morpholinopropylcarbamoyl)triazol-1-yl]phenyl]pyridine-3-carboxamide]	> 10000 nM
Cc1cc(N)ncc1C(=O)Nc1cc(-n2cc(C(=O)NCCCN3CCOCC3)nn2)ccc1N1CCN(C)CC1 [Example 24, 6-amino-4-methyl-N-(2-(4-methylpiperazin-1-yl)-5-(4-((3-morpholinopropyl)carbamoyl)-1H-1,2,3-triazol-1-yl)phenyl)nicotinamide]	> 10000 nM
Cc1cc(F)ncc1C(=O)Nc1cc(-n2cc(C(=O)NCCCN3CCOCC3)nn2)ccc1N1CCN(C)CC1 [Example 25, 6-fluoro-4-methyl-N-(2-(4-methylpiperazin-1-yl)-5-(4-((3-morpholinopropyl)carbamoyl)-1H-1,2,3-triazol-1-yl)phenyl)nicotinamide]	> 10000 nM
Cc1ncc(C(=O)Nc2cc(-n3cc(C(=O)NCCCN4CCOCC4)nn3)ccc2N2CCN(C)CC2)c(C(F)(F)F)n1 [Example 26, 2-methyl-N-(2-(4-methylpiperazin-1-yl)-5-(4-((3-morpholinopropyl)carbamoyl)-1H-1,2,3-triazol-1-yl)phenyl)-4-(trifluoromethyl)pyrimidine-5-carboxamide]	> 10000 nM
CSc1ncc(C(=O)Nc2cc(-n3cc(C(=O)NCCCN4CCOCC4)nn3)ccc2N2CCN(C)CC2)c(C(F)(F)F)n1 [Example 27, N-(2-(4-methylpiperazin-1-yl)-5-(4-((3-morpholinopropyl)carbamoyl)-1H-1,2,3-triazol-1-yl)phenyl)-2-(methylthio)-4-(trifluoromethyl)pyrimidine-5-carboxamide]	> 10000 nM

From patent US20230286948A1 (HUYABIO International, LLC, priority 2022, published 2023)
